PMC5206489 (Journal of chemical information and modeling, 2016)

How the values were obtained:
HIV-1YU2 = settings: read-out: IC50 (HIV-1YU2); viral infectivity, HIV-1YU2 strain; cited from earlier work
BG505 SOSIP.664 = experiment: Competition ELISA, BG505 SOSIP.664 binding to CD4IgG2; set-up: species or system HIV-1; settings: full dose response not achieved owing to solubility limits
core monomeric gp120 = settings: binding affinity on gp120 core monomer; cited from earlier work

Q: Which results are given for CC1(C)CC(NC(=O)C(=O)Nc2ccc(Cl)cc2)CC(C)(C)N1 [compound 1]?
A: IC50 (HIV-1YU2): > 100000 nM; inhibition of SOSIP trimer protein binding to sCD4 (in words) (BG505 SOSIP.664): weaker inhibition; Kd (core monomeric gp120): 3700 nM

Q: Which IC50 (HIV-1YU2) does the source give for CN(Cc1ccc2c(c1)C[C@H](CN=C(N)N)[C@H]2NC(=O)C(=O)Nc1ccc(Cl)c(F)c1)C(=N)N [compound 5] here?
A: 800 ± 100 nM

Q: What about the Kd (core monomeric gp120) of the same compound?
A: 100 nM
